Data: article PMC11523249, “Expanding the antiprotozoal activity and the mechanism of action of n-butyl and iso-butyl ester of quinoxaline-1,4-di-N-oxide derivatives against Giardia lamblia, Trichomonas vaginalis, and Entamoeba histolytica. An in vitro and in silico approach” (Journal of Enzyme Inhibition and Medicinal Chemistry, 2024)
Read-outs that look alike come from different tables or passages of the source.

Columns and labels:
[1] = biological target: T1, recombinant E. histolytica thioredoxin reductase (EhTRXR) (Entamoeba histolytica, UniProt C4LW95); assay: Inhibition of EhTrxR DTNB reductase activity; format: biochemical; conditions: for inhibition at 100 µM: pH 7, read-out: EhTrxR inhibitory effect (disulphide reductase activity)
T1 construct: His-tag (pET28a) (N); made in house; host or cells: E. coli BL21 (DE3)
T1 sequence (C4LW95 1-314): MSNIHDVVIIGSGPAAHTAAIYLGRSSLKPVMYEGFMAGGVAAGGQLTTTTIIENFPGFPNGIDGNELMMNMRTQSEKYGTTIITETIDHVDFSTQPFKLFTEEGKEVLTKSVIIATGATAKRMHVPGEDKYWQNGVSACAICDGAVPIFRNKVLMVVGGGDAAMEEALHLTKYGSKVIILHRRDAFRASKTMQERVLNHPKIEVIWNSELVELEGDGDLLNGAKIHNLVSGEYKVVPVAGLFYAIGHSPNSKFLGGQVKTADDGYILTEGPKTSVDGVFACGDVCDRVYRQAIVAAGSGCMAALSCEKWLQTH
Method: Recombinant E. histolytica thioredoxin reductase (EhTRXR) was expressed in E. coli BL21 (DE3) as His-tag (N-terminal) recombinant proteins using pET28a vector, and it was purified using IMAC as previously described. 5,5′-Dithiobis(2-nitrobenzoic acid) (DTNB) reductase activity was measured by monitoring the production of thionitrobenzoate at 405 nm in a reaction mixture comprising 50 mM potassium phosphate, pH 7.0, 2 mM EDTA, 300 µM NADPH, 5 mM DTNB, and 0.1 µM EhTRXR. Activity was calculated using the molar extinction coefficient at 405 nm of 13.6 mM^−1cm^− 1 and considering that 1 mol of NADPH yields 2 mol of thionitrobenzoate. The enzyme assays were performed at 30 °C, in a final volume of 50 μL, and using a Multiskan Ascent one-channel vertical light path filter photometer (Thermo Electron Co.). All results represent the arithmetic mean of at three independent experiments.

[2] = test system: T. vaginalis GT3 strain; assay: In vitro susceptibility assay, T. vaginalis trophozoites; format: cell-based, Trichomonas vaginalis
Method: (§1) G. lamblia WB strain, T. vaginalis GT3 strain, and E. histolytica strain HM1-IMSS were used in all experiments, all parasitic strains were obtained from the Unidad de Investigación Médica en Enfermedades Infecciosas y Parasitarias, Hospital de Pediatría, Instituto Mexicano del Seguro Social. In vitro susceptibility assays to determine IC50 values were performed using a method previously described. For this, 4 × 10^4 G. lamblia; 6 × 10^3 E. histolytica, or 4 × 10^4 T. vaginalis trophozoites were incubated for 48 h at 37 °C with different concentrations of quinoxaline derivatives T-137 to T-170 (0.5 ng/mL to 10 μg/mL) using dimethyl sulfoxide (DMSO) (0.05%) as solvent. Metronidazole and albendazole were used as positive controls, and parasites in the medium without drugs containing DMSO (0.05%) were included as negative controls. At the end of the incubation period, trophozoites were washed and subcultured for another 48 h in a fresh medium without drugs. Then, trophozoites were counted with a haemocytometer and the IC50 was calculated by Probit analysis. Experiments were carried out in triplicate and repeated at least twice.

[3] = test system: murine macrophage cell line J774.2; assay: Cytotoxic evaluation, MTT colorimetric assay; format: cell-based; conditions: murine macrophages J774.2, read-out: Cytotoxicity (Macrophages J774.2) (CC50)
Method: The murine macrophage cell line J774.2 was maintained in culture flasks with RPMI 1640 medium supplemented with 10% FBS, and 100 U/mL antibiotic-antifungal mixture (Gibco). Cells were incubated at 37 °C with 5% CO2 and humidity. Murine macrophage cell line J774.2 is maintained at Laboratorio de Estudios Epidemiológicos, Clínicos, Diseños Experimentales e Investigación, Facultad de Ciencias Químicas, Universidad Autónoma “Benito Juárez” de Oaxaca. Macrophages were washed and viability was assessed by the MTT colorimetric assay. In a 96-well microplate, 1 × 10^5 macrophages were added per well and a dose-response assay was performed. Compounds were evaluated using serial dilutions to determine half-maximal cytotoxic concentration (CC50) values in triplicate considering 0.2% DMSO as negative control.

[4] = biological target: T2, recombinant GlTIM (Giardia intestinalis, UniProt P36186); assay: Inhibition of recombinant GlTIM enzyme activity; format: biochemical, Giardia lamblia
T2 construct: His-tag with TEV site (pET3a-HisTEV); made in house; host or cells: Escherichia coli BL21(DE3) pLys
Method: Escherichia coli BL21(DE3) pLys bacteria containing the plasmid pET3a-HisTEV with the gene coding for GlTIM wild type were grown in LB medium supplemented with 0.1 mg/mL ampicillin and incubated at 37 °C[40]. When the cultures reached Abs600 = 0.8, they were induced to express the recombinant enzyme using 0.4 mM IPTG and incubated overnight at 30 °C with shaking at 180 rpm. After induction and growth, the bacteria were collected by centrifugation (6500 rpm, 15 min) and suspended in 40 mL of lysis buffer (pH 8.0) containing 50 mM Tris, 50 mM NaCl, 5 mM β-mercaptoethanol, and 1 mM phenylmethylsulfonyl fluoride (PMSF). The bacterial suspension was disrupted by sonication and centrifuged at 9000 rpm for 1 h, at 4 °C. Protein purification was performed via IMAC using a Profinity Ni^2+ charged resin previously equilibrated with lysis buffer. The soluble protein fraction was mixed with the equilibrated Ni^2+ charged resin and incubated at room temperature with shaking for 30 min. Then, the column was washed with the same buffer (10 column volumes) to remove proteins without the His-tag sequence. The desired proteins were eluted with lysis buffer containing 200 mM imidazole and adjusted to pH 8.0. The purified protein was concentrated using Amicon ultrafiltration units. The purity of the enzymes was analysed via sodium dodecyl sulfate-polyacrylamide gel electrophoresis (16% SDS–PAGE gel) and stained with colloidal Coomassie Brilliant Blue. The enzyme concentration was spectrophotometrically determined (Spectrophotometer Cary 50, Varian Inc.) at 280 nm using the extinction coefficient ε280 = 26,600 M^−1 cm^−1.
(§2) For the inhibition assays, freshly purified recombinant GlTIM was incubated at 0.2 mg/mL for 2 h at 37 °C in the presence of 500 μM of each n-butyl and iso-butyl quinoxaline-7-carboxylate-1,4-di-N-oxide derivatives. After incubation, the samples were diluted, and 5 ng/mL were taken to measure their enzymatic activity. Enzyme activity was spectrophotometrically measured (Spectrophotometer Cary 50, Agilent Technologies, CA, USA) by following DHAP synthesis with a coupled system that followed the oxidation of NADH at 340 nm[41]. Results are expressed as the percent activity versus each compound at 500 μM, with the enzyme activity without any drug set as 100%. Additionally, GlTIM and HsTIM (separately) were incubated at 0.2 mg/mL for 2 h at 37 °C in the presence of 5, 10, 50, 150, 250, 350, and 500 μM of the T-167 derivative. Results are expressed as the percent activity versus T-167 concentration. All results represent the arithmetic mean of at least four independent experiments.

[5] = test system: G. lamblia WB strain; assay: In vitro susceptibility assay, G. lamblia trophozoites; format: cell-based, Giardia lamblia; conditions: for Selectivity index, G. lamblia versus macrophages: CC50 J774.2 / IC50 G. lamblia
Method: as §1

[6] = test system: G. lamblia trophozoites (WB strain); assay: Attachment and viability of G. lamblia trophozoites; format: cell-based, Giardia lamblia; conditions: for Concentration at which detachment and cytotoxicity took impact: 24 h of incubation at 37 °C; for Detachment of trophozoites: cultures incubated with compound
Method: Cytotoxicity of a drug is not the only important characteristic to cope with the pathogenesis of G. lamblia. It is known that the attachment of the trophozoites to the microvillus border of the small intestine is a crucial step for causing disease. […] T-143 and T-146 had the highest cytotoxic effect on giardia trophozoites (Figure 2(A,B), respectively). Detachment of trophozoites in cultures incubated with T-146 or T-161 was undetectable, with their impact directly through cytotoxicity (Figure 2(B)).

[7] = test system: E. histolytica strain HM1-IMSS; assay: In vitro susceptibility assay, E. histolytica trophozoites; format: cell-based, Entamoeba histolytica; conditions: for IC50: Entamoeba histolytica, 48 h, read-out: E. histolytica (IC50 nM), trophozoites, 48 h at 37 °C, subcultured 48 h, Probit analysis
Method: as §1

[8] = biological target: T3, human TIM (HsTIM) (Homo sapiens, UniProt P60174); assay: Inhibition of recombinant HsTIM enzyme activity; format: biochemical
T3 construct: His-tag with TEV site (pET3a-HisTEV); made in house; host or cells: E. coli BL21-CodonPlus (DE3)-RIL
Method: Expression of human TIM (HsTIM) was performed by using the E. coli BL21-CodonPlus (DE3)-RIL strain (Stratagene) containing the plasmid pET3a-HisTEV with the gene coding for HsTIM. Expression and purification steps were as above-mentioned for GlTIM. The enzyme concentration was spectrophotometrically determined (Spectrophotometer Cary 50, Varian Inc.) at 280 nm using the extinction coefficient ε280 = 33,460 M^−1 cm^−1.
as §2

[9] = biological target: T2, recombinant GlTIM; design: method as in PMID 25223993; conditions: cited from earlier work
[10] = Trichomonas vaginalis, GT3, 48 h, read-out: T. vaginalis (IC50 nM), trophozoites, 48 h at 37 °C, subcultured 48 h, Probit analysis
[11] = read-out: T. vaginalis (IC50 nM), trophozoites, 48 h at 37 °C, subcultured 48 h, Probit analysis
[12] = Giardia duodenalis, 48 h, read-out: G. lamblia (IC50 nM), trophozoites, 48 h at 37 °C, subcultured 48 h, Probit analysis
[13] = read-out: G. lamblia (IC50 nM), trophozoites, 48 h at 37 °C, subcultured 48 h, Probit analysis

T3 sequence (P60174 whole entry): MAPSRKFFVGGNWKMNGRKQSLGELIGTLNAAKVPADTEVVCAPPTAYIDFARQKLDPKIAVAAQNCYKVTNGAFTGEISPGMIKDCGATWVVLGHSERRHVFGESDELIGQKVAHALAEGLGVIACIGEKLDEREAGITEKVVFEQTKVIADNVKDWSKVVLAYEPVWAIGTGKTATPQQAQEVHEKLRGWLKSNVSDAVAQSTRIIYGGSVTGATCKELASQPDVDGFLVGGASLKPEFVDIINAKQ
T2 sequence (P36186 whole entry): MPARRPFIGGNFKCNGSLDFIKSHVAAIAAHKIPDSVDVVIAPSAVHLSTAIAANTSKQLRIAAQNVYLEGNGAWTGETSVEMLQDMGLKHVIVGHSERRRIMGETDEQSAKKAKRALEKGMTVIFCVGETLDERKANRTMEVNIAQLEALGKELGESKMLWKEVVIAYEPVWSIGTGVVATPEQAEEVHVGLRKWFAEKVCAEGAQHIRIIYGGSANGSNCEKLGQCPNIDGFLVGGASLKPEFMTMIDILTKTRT

Compound | inhibition at 100 µM [1] [%] | IC50 [2, 10] [nM] | IC50 [2, 11] [nM] | CC50 [3] [nM] | inhibition at 500 µM ([4]; 500 µM compound, 2 h at 37 °C) [%] | IC50 [5, 12] [nM] | IC50 [5, 13] [nM] | Concentration at which detachment and cytotoxicity took impact [6] [µM] | IC50 [7] [nM] | further results
CCCCOC(=O)c1ccc2c(c1)[n+]([O-])c(C(=O)Nc1ccc(Cl)cc1)c(C)[n+]2[O-] [Compound T-143] | 50 to 75 | < 90 | 45.2 ± 6.99 | 50300 ± 2800 | 43.7 | < 30 | 29.1 ± 5.83 | 25 | 15.1 ± 2.33 | Selectivity index, T. vaginalis versus macrophages ([2]; CC50 J774.2 / IC50 T. vaginalis): 1112 fold; Selectivity index, G. lamblia versus macrophages [5]: 1726 fold; Selectivity index, E. histolytica versus macrophages ([7]; CC50 J774.2 / IC50 E. histolytica): 3321 fold
CCCCOC(=O)c1ccc2c(c1)[n+]([O-])c(C(=O)OCC)c(C(F)(F)F)[n+]2[O-] [Compound T-146] | 50 to 75 | ~100 | 102 ± 2.49 | > 200000 | 37.3 | < 30 | 26.1 ± 6.22 | 25 | 64.7 ± 3.73 | Detachment of trophozoites [6]: undetectable
Cc1ccc(NC(=O)c2c(C)[n+]([O-])c3ccc(C(=O)OCC(C)C)cc3[n+]2[O-])c(C)c1 [Compound T-159] |  | 105 ± 1.18 |  | > 200000 |  | 94.5 ± 3.54 |  |  | 30.7 ± 5.91 | EhTrxR inhibitory effect (disulphide reductase activity) ([1]; 100 µM compound, 5 mM DTNB, 300 µM NADPH, 30 °C, pH 7.0): low inhibition
Cc1c(C(=O)Nc2ccc(Cl)cc2)[n+]([O-])c2cc(C(=O)OCC(C)C)ccc2[n+]1[O-] [Compound T-161] | > 75 | 137 ± 3.5 |  |  | 19.7 | 120 ± 1.16 |  | 25 | 29.1 ± 3.5 | IC50 ([1]; DTNB reductase activity, 30 °C, pH 7.0): 18000 nM; Detachment of trophozoites [6]: undetectable
CC(=O)c1c(C(F)(F)F)[n+]([O-])c2ccc(C(=O)OCC(C)C)cc2[n+]1[O-] [Compound T-167] |  | < 90 | 90 ± 6.72 | 25400 ± 81.5 | 99.7 | < 30 | 25.5 ± 1.34 | 25 | 64.5 ± 5.38 | inhibition at 10 µM ([4]; 10 µM T-167, 2 h at 37 °C): > 20%; GlTIM inhibition ([4]; 500 µM compound, 2 h at 37 °C): wholly inhibited; GlTIM residual activity ([4]; 50 to 350 µM T-167): ~25%; Decrease of GlTIM enzyme activity ([4]; <10 to 50 µM T-167): above 70%; Effect on HsTIM enzyme activity ([8]; 10 µM T-167, 2 h at 37 °C): unaffected; HsTIM retained activity ([8]; 500 µM T-167, when GlTIM activity is completely depleted): more than 75%; HsTIM loss of activity ([8]; 50 to 350 µM T-167): no more than 10%; Selectivity index, G. lamblia versus macrophages [5]: 994 fold
CC(C)COC(=O)c1ccc2c(c1)[n+]([O-])c(C(=O)Nc1ccccc1)c(-c1ccccc1)[n+]2[O-] [Compound T-169] | 50 to 75 | 116 ± 5.47 |  | > 200000 |  | 98.4 ± 2.19 |  |  | 43.7 ± 2.19 | 
COc1ccc2[nH]c([S+]([O-])Cc3ncc(C)c(OC)c3C)nc2c1 (stereo not shown) [omeprazole] |  |  |  |  |  |  |  |  |  | Concentration attaining 70% inhibition of GlTIM [9]: about 300 µM; Concentration wholly inhibiting GlTIM activity [9]: 750 µM
